Experimental data taken from PubChem BioAssay (NCI).
Values joined by “and” are separate entries in the source; they are usually repeats but may differ in a detail not shown here. Equal entries are not always repeated.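 Tested at 5 concentrations; 48 h exposure; 96-well plates; endpoints linearly interpolated, else capped at highest concentration. GI50 marks 50% less growth. TGI denotes the concentration required for complete inhibition of growth.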

Assays:
Test in all cases: NCI-60 cell line screen, 48 h
CCRF-CEM leukemia = test system: CCRF-CEM leukemia
EKVX NSCLC = test system: EKVX NSCLC
HL-60(TB) leukemia = test system: HL-60(TB) leukemia
HOP-62 NSCLC = test system: HOP-62 NSCLC
LOX IMVI melanoma = test system: LOX IMVI melanoma
M14 melanoma = test system: M14 melanoma
MOLT-4 leukemia = test system: MOLT-4 leukemia
NCI/ADR-RES ovarian = test system: NCI/ADR-RES ovarian
RPMI-8226 leukemia = test system: RPMI-8226 leukemia
U251 CNS = test system: U251 CNS

SMILES	TGI (CCRF-CEM leukemia)	TGI (EKVX NSCLC)	TGI (HL-60(TB) leukemia)	TGI (HOP-62 NSCLC)	TGI (LOX IMVI melanoma)	TGI (M14 melanoma)	TGI (MOLT-4 leukemia)	TGI (NCI/ADR-RES ovarian)	TGI (RPMI-8226 leukemia)	TGI (U251 CNS)	GI50 (CCRF-CEM leukemia)	GI50 (EKVX NSCLC)	GI50 (HL-60(TB) leukemia)	GI50 (HOP-62 NSCLC)	GI50 (LOX IMVI melanoma)	GI50 (MOLT-4 leukemia)	GI50 (NCI/ADR-RES ovarian)	GI50 (RPMI-8226 leukemia)	GI50 (U251 CNS)	GI50 (M14 melanoma)
c1cc2c(c(NC3=NCCN3)c1)CCCC2	> 100 µM	> 100 µM	> 100 µM	> 100 µM	> 100 µM	> 100 µM	> 100 µM	> 100 µM	> 100 µM	> 100 µM										
N=C1C(c2nc3ccccc3s2)=C(O)CN1c1cc(Cl)cc(Cl)c1	> 100 µM	> 100 µM	> 100 µM	> 100 µM	> 100 µM		> 100 µM	> 100 µM	> 100 µM	> 100 µM	> 100 µM	> 100 µM	> 100 µM	46.7 µM	> 100 µM	> 100 µM	> 100 µM	> 100 µM	32.3 µM	
CC1COCCN1CC#CCOC(=O)c1cc2ccccc2oc1=O (configuration not stated)	> 100 µM	> 100 µM	> 100 µM	> 100 µM	> 100 µM		> 100 µM	> 100 µM	> 100 µM	> 100 µM	> 100 µM	> 100 µM	> 100 µM	> 100 µM	> 100 µM	> 100 µM	> 100 µM	> 100 µM	> 100 µM	
COc1cc2c(cc1O)C1CC(CC3CCCCN31)OC(=O)/C=C\c1ccc(O)c-2c1 (configuration not stated)	90.5 µM	> 100 µM	58.3 µM		32.3 µM	46.6 µM	60.2 µM	75.7 µM	89.8 µM	> 100 µM										
COc1ccc2c(c1)N(CCO)C1=C(C(=O)OC1)C2c1ccc(OC)c(OC)c1 (configuration not stated)	> 100 µM	> 100 µM	5.51 µM	> 100 µM	> 100 µM	> 100 µM	> 100 µM	45.1 µM	> 100 µM	> 100 µM	3.99 µM	6.52 µM	2.04 µM	4.89 µM	4.89 µM	4.75 µM	4.38 µM	3.78 µM	2.97 µM	2.44 µM
Cc1cc2c(cc1Cl)SC(C(=O)c1ccc(Cl)c(Cl)c1)NS2(=O)=O (configuration not stated)	61.2 µM	> 100 µM	80.6 µM	> 100 µM	48.7 µM	> 100 µM	64.4 µM	> 100 µM	56 µM	> 100 µM	27.9 µM	37.5 µM	39.8 µM	39.3 µM	22.6 µM	29.5 µM	38.6 µM	24.6 µM	34.4 µM	43.9 µM
CNc1ncc2cc(-c3cc(NC(=O)NCCC(C)(C)C)c(F)cc3C)c(C)nc2n1	> 100 µM	99.6 µM and > 10 µM	17.8 µM and > 10 µM	12.7 µM and > 10 µM	2.23 µM and 2 µM		> 69.7 µM	> 100 µM	> 52.6 µM	31.6 µM and > 10 µM	10.1 µM and > 9.36 µM	2.54 µM and 1.38 µM	0.0668 µM and 0.0811 µM	0.195 µM and 0.298 µM	0.102 µM and 0.0573 µM	0.688 µM and > 2.45 µM	1.5 µM and 1.35 µM	0.907 µM and 0.685 µM	0.572 µM and 0.474 µM	< 0.01 µM and 0.0105 µM
N=C1/C(=C2\Nc3ccccc3S2)CC(=O)N1c1ccc(SC(F)F)cc1	> 100 µM	> 100 µM	> 100 µM	14.7 µM	> 100 µM	> 100 µM	> 100 µM	> 100 µM	66 µM	29.7 µM	0.839 µM	24.5 µM	5.02 µM	1.49 µM	2.21 µM	1.42 µM	6.52 µM	0.626 µM	2.74 µM	33.2 µM
COc1ccc2nc3cc(Cl)ccc3c(Nc3cc(C(C)C)c(O)cc3C)c2c1	6.63 µM	7.75 µM		3.48 µM	3.3 µM	3.31 µM	4.36 µM	8.01 µM	2.68 µM	3.53 µM	2.08 µM	2.22 µM	1.31 µM	1.91 µM	1.79 µM	1.38 µM	2.76 µM	0.663 µM	1.79 µM	1.74 µM
COC1=CC2CCN3Cc4cc5c(cc4C(C1O)C23)OCC5 (configuration not stated)	> 100 µM	32.6 µM	> 25.7 µM	> 61.4 µM	3.18 µM	19.3 µM	> 100 µM	18.4 µM	> 29.1 µM	11.4 µM		4.66 µM	4.75 µM	3.61 µM	0.587 µM	2.11 µM	3 µM	15 µM	1.53 µM	3 µM
COc1c2ccccc2c(O)c2c(=O)ccn(C)c12	> 100 µM	79.2 µM	18.7 µM	33 µM	11.3 µM	5.81 µM	> 83.8 µM	30 µM	> 100 µM	13.4 µM	26.8 µM	17.9 µM	3.25 µM	5.48 µM	2.02 µM	17.9 µM	4.62 µM	5.96 µM	2.67 µM	2.3 µM
Fc1ccc(C2C3CCOc4c(ccc5ccccc45)C3=NN2c2ccccc2)cc1 (configuration not stated)	> 74.4 µM	> 100 µM	> 100 µM	> 100 µM	> 100 µM	> 100 µM	> 100 µM	> 100 µM	> 100 µM	> 100 µM	16.6 µM	> 87.4 µM	> 100 µM	> 100 µM	88.4 µM	30.7 µM	> 100 µM	63.5 µM	56.1 µM	> 100 µM
CCc1ccc([O-])c(C=NCCCN(C)CCCN=Cc2cc(C)ccc2[O-])c1.[Co+3].[N-]=[N+]=[N-]	> 150 µg/mL	50 µg/mL and > 150 µg/mL	> 150 µg/mL	50 µg/mL and 34.5 µg/mL	> 150 µg/mL	50 µg/mL	> 150 µg/mL	50 µg/mL and 47.4 µg/mL	50 µg/mL and > 150 µg/mL	50 µg/mL and 123 µg/mL	> 150 µg/mL	50 µg/mL and 103 µg/mL	61 µg/mL	10.5 µg/mL and 12 µg/mL	41.3 µg/mL	> 150 µg/mL	50 µg/mL and 47.4 µg/mL	50 µg/mL and 73.5 µg/mL	20.1 µg/mL and 33 µg/mL	50 µg/mL
